According to PubChem BioAssay AID602214 (Southern Research Specialized Biocontainment Screening …, 2012):
Calls of active or inactive are those of the source.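 Rule for the calls: active = inhibition of 30% or more at any tested concentration; inactive = the rest.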

Molecular target: Cytosol aminopeptidase (Homo sapiens) (UniProt P28838)
Assay: inhibition of HuM17LAP aminopeptidase activity – biochemical, QFRET fluorogenic substrate, counter-screen for PfM17LAP inhibitor project, dose response (AID 602214)
Settings: purified recombinant human M17LAP, H-Leu-NHMec fluorescence

Cytosol aminopeptidase (Homo sapiens), sequence (P28838 whole entry, looked up): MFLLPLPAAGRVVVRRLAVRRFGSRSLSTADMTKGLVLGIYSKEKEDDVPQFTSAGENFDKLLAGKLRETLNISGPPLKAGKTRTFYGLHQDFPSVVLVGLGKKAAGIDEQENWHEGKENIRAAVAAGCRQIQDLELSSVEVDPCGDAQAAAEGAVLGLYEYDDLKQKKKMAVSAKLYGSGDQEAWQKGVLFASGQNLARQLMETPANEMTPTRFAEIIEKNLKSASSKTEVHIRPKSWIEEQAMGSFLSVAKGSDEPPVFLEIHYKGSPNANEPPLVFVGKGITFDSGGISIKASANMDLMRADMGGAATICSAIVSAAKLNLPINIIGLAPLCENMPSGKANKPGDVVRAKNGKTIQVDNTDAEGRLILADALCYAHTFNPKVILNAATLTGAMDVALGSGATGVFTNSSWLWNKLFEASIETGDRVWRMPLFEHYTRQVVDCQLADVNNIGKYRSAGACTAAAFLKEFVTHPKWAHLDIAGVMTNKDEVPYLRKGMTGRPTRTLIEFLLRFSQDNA

Row | Structure (SMILES) | inhibition (at 100 µM (top of the series)) | IC50 | other results
1 | CCC(C)(C)C1CCc2c(sc(NC(=O)C3CC(C)=C(C)CC3C(=O)O)c2C(=O)OC)C1 (centres undefined) | inactive | – | –
2 | CCCCOc1ccc(CNc2c(N(C)O)c(=O)c2=O)cc1 | – | – | inhibition (at 25 µM (top of the series)): inactive
3 | O=C(CSc1nc(O)cc(=O)[nH]1)Nc1ccccc1 | inactive | – | –
4 | CCCCOc1ccc(CCC(=O)NO)cc1 | – | 16200 nM | –
5 | Cc1ccc(CC(=O)NO)cc1 | – | 1820 nM | –
6 | CC(C)(C(=O)NO)c1ccccc1 | inactive | – | –
7 | COc1cc(NC(=O)CSc2ccccc2)c(C(=O)O)cc1OC | inactive | – | –
8 | COC(=O)c1ccccc1NC(=O)c1cc2cc3ccc(C)cc3nc2s1 | – | – | inhibition (at 50 µM (top of the series)): inactive
9 | CCC(C)Oc1ccc(CC(=O)OC)cc1 (centres undefined) | inactive | – | –
10 | O=C(O)c1ccccc1C(=O)Nc1nc2c(s1)CCCC2 | inactive | – | –
11 | Cc1ccc(NC(=O)CSc2nc(O)cc(=O)n2Cc2ccccc2)cc1 | inactive | – | –
12 | O=C(Cc1ccc(Oc2ccccc2)cc1)NO | – | 520 nM | –
13 | O=C(CSc1nccc(=O)[nH]1)Nc1ccc(N2CCOCC2)cc1 | inactive | – | –
14 | CCCCOc1ccc(CC(=O)O)cc1 | inactive | – | –
15 | COC(=O)Cc1ccc(OCCN(C)C)cc1 | inactive | – | –
16 | CC(C)C[C@H](N)C(=O)NO | inactive | – | –
17 | CCn1c2ccccc2c2cc(NC(=O)CSc3nc(C)cc(=O)[nH]3)ccc21 | inactive | – | –
18 | O=C(Nc1ccc(Cl)cc1)Nc1ccccc1C(=O)O | inactive | – | –
19 | COC(=O)c1c(NC(=O)C2CCCCC2C(=O)O)sc2c1CCC(c1ccccc1)C2 (centres undefined) | inactive | – | –
20 | CCCCOc1ccc(CC(=O)NO)cc1 | – | 310 nM | –
21 | CC(C)COc1ccc(CC(=O)NO)cc1 | – | 210 nM | –
22 | COc1cc(NC(=O)c2ccc(-c3ccccc3)cc2)c(C(=O)O)cc1OC | inactive | – | –
23 | COc1ccc(CC(=O)NO)cc1 | – | 1640 nM | –
24 | N[C@@H](Cc1c[nH]c2ccccc12)C(=O)NO | inactive | – | –
25 | CC1CCc2sc(C(=O)Nc3cccc4c3C(=O)NC4)cc2C1 (centres undefined) | inactive | – | –
26 | CCCCOc1ccc(CNc2c(N(O)Cc3ccccc3)c(=O)c2=O)cc1 | inactive | – | –
27 | COC(=O)c1cc(OC)c(OC)cc1NC(=O)c1sc2nc(C)ccc2c1N | inactive | – | –

Row | Structure (SMILES) | inhibition (at 100 µM (top of the series)) | IC50 | other results
28 | COC(=O)Cc1ccc(OCC(C)C)cc1 | inactive | – | –
29 | Cc1cc(SCC(=O)Nc2ccccc2C(=O)O)nc2ccccc12 | inactive | – | –
30 | Cc1cc(=O)[nH]c(SCC(=O)Nc2ccccc2)n1 | inactive | – | –
31 | COc1ccc(OCCC(=O)NO)cc1 | – | 44200 nM | –
32 | COc1ccc(-c2nnc(NC(=O)C3CC(C)=C(C)CC3C(=O)O)s2)cc1 (centres undefined) | inactive | – | –
33 | CCCCOc1ccc(CC(=O)N(C)O)cc1 | – | – | inhibition (at 50 µM (top of the series)): inactive
34 | O=C(NO)c1cccc2ccccc12 | – | 31900 nM | –
35 | CCCCc1ccc(CC(=O)NO)cc1 | – | 350 nM | –
36 | CCCOc1ccc(CC(=O)OC)cc1 | inactive | – | –
37 | CCCCOc1ccc(C(=O)NO)cc1 | – | 8670 nM | –
38 | CC1=C(C)CC(C(=O)Nc2nc(-c3cc(C)ccc3C)c(C)s2)C(C(=O)O)C1 (centres undefined) | inactive | – | –
39 | CCOc1ccc(CC(=O)NO)cc1 | – | 1110 nM | –
40 | COC(=O)c1c(NC(=O)c2ccccc2C(=O)O)sc2c1CCCC2 | inactive | – | –
41 | O=C1OCCC1Sc1nnc(NC2CCCCC2)s1 (centres undefined) | – | – | inhibition (at 50 µM (top of the series)): inactive
42 | NC(N)=NCCC[C@H](N)C(=O)NO | inactive | – | –
43 | O=C(Cc1ccc2c(c1)CCCC2)NO | – | 280 nM | –
44 | CCCCCCCCCC(=O)NO | – | 8230 nM | –
45 | O=C(Cc1ccc2ccccc2c1)NO | – | 290 nM | –
46 | COc1ccc(CCCC(=O)NO)cc1 | – | 4580 nM | –
47 | O=C(Cc1ccc(OCc2ccccc2)cc1)NO | – | 1180 nM | –
48 | O=C(CSc1ccccc1)Nc1cccc2c1C(=O)NC2=O | inactive | – | –
49 | CN(O)C(=O)Cc1ccc(OCc2ccccc2)cc1 | inactive | – | –
50 | CC1=C(C)CC(C(=O)Nc2ccc(Oc3ccc(Cl)cc3)cc2)C(C(=O)O)C1 (centres undefined) | inactive | – | –
51 | COC(=O)c1ccccc1NC(=O)c1ccc2c(Cl)c3c(nc2c1)CCC3 | – | – | inhibition (at 50 µM (top of the series)): inactive
52 | O=C(CSc1nccc(=O)[nH]1)Nc1ccc(Oc2ccccc2)cc1 | – | – | inhibition (at 50 µM (top of the series)): inactive
53 | O=C(Cc1cccc2ccccc12)NO | – | 990 nM | –
54 | COC(=O)c1c(NC(=O)C2CC=CCC2C(=O)O)sc(C)c1-c1ccc(C)cc1 (centres undefined) | – | 85700 nM | –
